# Results from patent US20110142842A1, “POLYPEPTIDES” (Medinnova AS, priority 2007, published 2011).
# “And” between values parts separate entries of the source, which are not always exact repeats. Equal entries are not always repeated. Where two headings read alike, the source gives them in different places.
# What was measured:
# [1] = tested on: autologous responder cells (monocyte-depleted PBMC) from HLA-A*0201-negative donors; assay: Induction of pentamer positive CD8+ T cells by peptide-pulsed HLA-A*0201-transfected moDC (Example 8); assay type: cell-based, human; settings: for Day 12 % pent+/CD8+: day 12 of co-culture; for Day 19 % pent+/CD8+: day 19 of co-culture, after restimulation; for Day 12 Donors / Day 19 Donors: donors with positive response / donors tested
# Description: MoDC transfected with HLA-A*0201 mRNA were harvested 18 hours after transfection and resuspended in 1-2 ml of serum-free DC-medium containing 50 μg/ml peptide, such as MART-1 or peptide #19. The cells were incubated at 37° C., 5% CO2 for 4 hours, then washed once in serum-free RPMI.
# Stimulator and responder cells were seeded at a stimulator to responder (S:R) ratio of 1:10, with 3.0×10^6 responders per well in serum-free DC medium containing 10 ng/ml IL-7 (PeproTech EC Ltd.), 50 pg/ml IL-12 (PeproTech EC Ltd.), and PPD at 1 μg/ml.
# On day 12 the responder cells were harvested and analyzed for the presence of pentamer positive cells. The cells were either sorted or restimulated.
# Restimulation was done with autologous EBV-LCL transfected with HLA-A*0201 mRNA 12-24 hours prior to stimulation, harvested and resuspended in 1-2 ml of serum-free X-Vivo 20 (Cambrex) containing the same peptide as added on day 0 at 20 μg/ml, and incubated for 4 hours at 37° C., 5% CO2. Following incubation, the EBV-LCL were washed once in serum-free RPMI.
# From day 12 of co-culture with stimulator cells, the responders were harvested, counted and analyzed for the presence of pentamer positive cells weekly. The responder cells were either restimulated, as described above, or the pentamer positive cells were sorted and expanded as described below.
# Monocyte-derived dendritic cells (moDC) from HLA-A*0201-negative donors were transfected with HLA-A*0201 mRNA after maturation. 18-24 hours post-transfection the cells were pulsed with the peptides indicated in Table 2 for four hours, before co-culturing them with autologous responder cells (monocyte-depleted PBMC). On day 12 and day 19 and in some cases at day 26 of co-culture, the cells were harvested, stained with relevant peptide-MHC-pentamer and analyzed by flow cytometry. The percentage of pentamer positive cells was calculated by dividing the number of pentamer positive cells by the number of CD8+ cells. On day 12 and day 19, the cells were restimulated with autologous EBV-cells that were transfected with HLA-A*0201 mRNA and loaded for four hours with the relevant peptides indicated in Table 2.
# HLA-A*0201 = HLA-A*0201 (Homo sapiens, UniProt P04439, D140Y/D185E/D98H/E176V/E277Q/G131W/G231S/I119V/I121R/I166T/I218V/L300P/L318F/N151K/N90K/P208A/P217A/Q86G/Q94H/R138H/R169H/T345S); assay: REVEAL MHC molecule binding assay (ProImmune)
# [2] = tested on: CD8+ T cells from HLA-A*0201 negative donors; assay: Induction of allo-restricted pentamer+ T cells by peptide-pulsed A2-moDC (Example 9); assay type: cell-based, human; settings: three donors respectively, 19 days of culture
# Description: Mature moDCs were harvested 18 hours after transfection with HLA-A*0201 mRNA, pulsed with 50 μg/ml MART-1 peptide or CD339-17 peptide for 4 hours, washed and co-cultured with thawed, non-adherent cells (see above) at a ratio of 1:10 in CellGro DC medium in the presence of 10 ng/ml IL-7 (PeproTech EC Ltd.) and 50 pg/ml IL-12 (PeproTech EC Ltd.), with the addition of 10 ng/ml IL-7 on day 7. Cells were harvested day 12 and analyzed for the presence of pentamer^+ cells. The co-cultures stimulated with the CD339-17 peptide were re-stimulated on day 12 with HLA-A*0201 transfected autologous EBV-LCL for an additional 7 days before harvest.
# Co-cultured cells were harvested and stained with A2/MART-1 pentamer or A2/CD33 pentamer, fluorotag and anti-CD8 according to the manufacturers' instructions. Sorting was performed by flow cytometry (FACS Aria Cell sorter, BD Biosciences, San Jose, Calif.) or by magnetic beads to a purity of >98%. Pentamer^+ cells labelled with fluorotag conjugated to PE were isolated using MACS Anti-PE MicroBeads (Miltenyi Biotec, Bergisch Gladbach, Germany) followed by separation over two subsequent MACS MS Columns (Miltenyi Biotec).
# [3] = day 26 per footnote c, printed in Day 19 column
Substance,Day 12 % pent+/CD8+ [1] [%],Day 19 % pent+/CD8+ [1],Day 12 Donors [1],Day 19 Donors [1],% Pass/fail control (HLA-A*0201) [%],frequencies of pentamer+ cells [2],"% pent+/CD8+ (results d26) [1, 3] [%]","Donors (results d26) [1, 3]",% Pass/fail control (HLA-A*0201; level of binding relative to pass/fail control binder designated 100%) [%]
"KIVEWDWKI (homo sapiens) [Peptide 109, from CD48]",0.03,0.05%,1/2,1/2,–,–,–,–,–
"ILFAFVSSV (homo sapiens) [Peptide 25, from FLT3]",0,0%,1/2,0/2,–,–,–,–,–
"LLQRPGLQL (homo sapiens) [Peptide 126, from CD64]",0.01,0.06%,1/2,1/2,–,–,–,–,–
"FLLLTISLL (homo sapiens) [Peptide 88, from CD52]",0,0.08% and 0%,0/2 and 0/3,2/3 and 0/2,–,–,–,–,–
"LIQPFMFRL (homo sapiens) [Peptide 84, from MPO]",0,0%,0/5,0/4,–,–,–,–,–
"LLLPLLLAL (homo sapiens) [Peptide 28, from CD7]",0.01,0.19%,1/2,1/2,–,–,–,–,–
"KLGGDLLRA (homo sapiens) [Peptide 129, from CD18]",0,0%,0/2,0/2,–,–,–,–,–
"KLMSPKLYV (homo sapiens) [Peptide 55, from CD19]",0.03,0.05%,1/2,1/2,–,–,–,–,–
"LLFLTPMEV (homo sapiens) [Peptide 108, from CD19]",0.03,0.09%,1/2,1/2,–,–,–,–,–
FLYGVILTV (homo sapiens) [Peptide 131],–,–,–,–,257.0,–,–,–,–
ALYDKTKRI (homo sapiens) [Peptide 115],0,0%,0/2,0/2,–,–,–,–,–
"ALPAALAVI (homo sapiens) [Peptide 127, from CD7]",0,0.04%,0/2,1/2,–,–,–,–,–
"CD339-17: peptide derived from the CD33 antigen, amino acid sequence 9-17, HLA-A*0201-binding candidate (LLWAGALAM; UniProt P20138 9-17, looked up, fragment)",–,–,–,–,–,0.13% and 0.32% and 0.55%,–,–,–
"FVANAIIHL (homo sapiens) [Peptide 111, from CD52]",0,0%,0/2,0/2,–,–,–,–,–
"YLHVALDLL (homo sapiens) [Peptide 107, from MPO]",0,0.01%,0/2,1/2,–,–,–,–,–
"YLGYTVTWL (homo sapiens) [Peptide 93, from CD11a]",0.02,0.06%,1/2,2/2,–,–,–,–,–
"LLWAGALAM (homo sapiens) [Peptide 86, from CD33]",0.14,0.35%,2/4,4/6,–,–,–,–,–
"ALAVISFLL (homo sapiens) [Peptide 114, from CD7]",0,0%,0/2,0/2,–,–,–,–,–
"RLYQFLLDL (homo sapiens) [Peptide 66, from PU.1]",0,0.03%,0/2,1/2,–,–,–,–,–
"SMFHVTLKI (homo sapiens) [Peptide 128, from CLL-1]",–,–,–,–,–,–,0.08,1/3,–
"LLLTISLLV (homo sapiens) [Peptide 81, from CD52]",0,0.03%,0/2,1/2,–,–,–,–,–
"SVDPRIANV [139] (SLDPRIANV; homo sapiens) [Peptide 139, modified peptide, MPO]",–,–,–,–,–,–,–,–,231.5
"LMGTLIAKV (homo sapiens) [Peptide 83, from HA-1]",0,0%,0/2,0/2,–,–,–,–,–
"SMLDDLRNV (homo sapiens) [Peptide 24, from CD18]",0,0.05%,0/2,1/2,–,–,–,–,–
"FLDCQIHRV (homo sapiens) [Peptide 7, from CD127]",0,0%,0/2,0/2,–,–,–,–,–
"SLWRRPFNV (homo sapiens) [Peptide 22, from MPO]",0,0.09%,0/2,1/2,–,–,–,–,–
"LVAPRFLEV (homo sapiens) [Peptide 85, from CD50]",0.13,0.30%,1/4,2/5,–,–,–,–,–
"VLWHWLLRT (homo sapiens) [Peptide 105, from CD19]",0,0.19%,0/2,4/6,–,–,–,–,–
